Experimental data taken from the supplement of paper PMC13380429.
Where a name gives a salt, the structure may show the parent alone.

Tests used:
Settings in all cases: 72 h
[1] = system: Vero E6; assay: relative viability EC50 (midpoint between 100% and the lowest measured viability); higher = less toxic
[2] = system: Calu-3; assay: as above
[3] = system: Caco-2; assay: as above
[4] = system: U2OS; assay: as above
[5] = system: HepG2; assay: as above
[6] = system: Vero E6; assay: drug sensitivity score (DSS) for viability; higher = more toxic; extreme values may be limits of the assay
[7] = system: Calu-3; assay: as above
[8] = system: Caco-2; assay: as above
[9] = system: U2OS; assay: as above
[10] = system: HepG2; assay: as above
[11] = system: Vero E6; assay: cell viability relative to DMSO; higher = less toxic
[12] = system: Calu-3; assay: as above
[13] = system: Caco-2; assay: as above
[14] = system: U2OS; assay: as above
[15] = system: HepG2; assay: as above

SMILES	relative viability EC50 [1] [µM]	relative viability EC50 [2] [µM]	relative viability EC50 [3] [µM]	relative viability EC50 [4] [µM]	relative viability EC50 [5] [µM]	drug sensitivity score [6]	drug sensitivity score [7]	drug sensitivity score [8]	drug sensitivity score [9]	drug sensitivity score [10]	cell viability ([11]; 1 nM) [%]	cell viability ([11]; 10 nM) [%]	cell viability ([11]; 100 nM) [%]	cell viability ([11]; 1000 nM) [%]	cell viability ([11]; 10000 nM) [%]	cell viability ([12]; 1 nM) [%]	cell viability ([12]; 10 nM) [%]	cell viability ([12]; 100 nM) [%]	cell viability ([12]; 1000 nM) [%]	cell viability ([12]; 10000 nM) [%]	cell viability ([13]; 1 nM) [%]	cell viability ([13]; 10 nM) [%]	cell viability ([13]; 100 nM) [%]	cell viability ([13]; 1000 nM) [%]	cell viability ([13]; 10000 nM) [%]	cell viability ([14]; 1 nM) [%]	cell viability ([14]; 10 nM) [%]	cell viability ([14]; 100 nM) [%]	cell viability ([14]; 1000 nM) [%]	cell viability ([14]; 10000 nM) [%]	cell viability ([15]; 1 nM) [%]	cell viability ([15]; 10 nM) [%]	cell viability ([15]; 100 nM) [%]	cell viability ([15]; 1000 nM) [%]	cell viability ([15]; 10000 nM) [%]
CC(=O)Nc1c(I)cc(I)c(C(=O)O)c1I [acetriazoic-acid]	> 10	> 10	> 10	> 10	> 10	0	0	0	0	0	93.2	99	93.8	98.4	102	98.6	95.3	95.1	99.4	97.1	91.2	92	96.3	97.8	102	94.2	92.4	98.7	97.2	98.2	96.6	92.1	89.9	95.8	107
CO[C@H]1[C@H](O)[C@@H](O)[C@@H](O)[C@H](O)[C@@H]1O [pinitol]	> 10	> 10	> 10	> 10	> 10	0	0	0	0	0	102	106	104	92.1	93.4	83.9	100	89.7	96.5	94.2	107	84.5	104	94	97	96.5	97.5	98.4	99.8	96	99.2	95.1	85.4	80	96.6
CC1(C)S[C@@H]2[C@H](N3C(=O)[C@@H](c4ccccc4)NC3(C)C)C(=O)N2[C@H]1C(=O)O [hetacillin]	> 10	> 10	> 10	> 10	> 10	0	0	0	0	0	109	97.6	94.7	110	90.4	99.4	94.3	104	100	113	98.3	92.7	96.8	93.4	86.4	100	95.7	101	95	99.5	95.6	101	102	110	93.8
Oc1ccc(C(O)CNCCCCCCNCC(O)c2ccc(O)c(O)c2)cc1O (stereo not given) [hexoprenaline]	> 10	> 10	> 10	> 10	> 10	0	0	0	0	0	103	109	99.2	101	98.7	95.8	97.9	99.7	97.9	100	97.3	102	93.7	95.9	88.3	102	97.6	95.4	102	95	103	104	110	93.2	103
COc1ccccc1N1CCN(CCN2C(=O)CC3(CCCC3)CC2=O)CC1 [BMY-7378]	> 10	> 10	> 10	> 10	> 10	0	0	0	0	0	97.3	95.6	99.9	90.1	106	92.7	95.2	109	110	106	89	93.9	97.5	97.3	103	93.5	100	96.3	95.8	102	106	102	105	98.4	108
CC(=O)[C@H]1CC[C@H]2[C@@H]3CC=C4C[C@@H](O)CC[C@]4(C)[C@H]3CC[C@]12C [pregnenolone]	> 10	> 10	> 10	> 10	> 10	0.4	0	0.3	0	0	102	104	99.5	88.4	95.2	96.8	101	101	97.1	98.6	97.1	95.9	88.9	90.4	90.4	91.5	96.4	93.5	99.1	94.7	98.9	96	99.6	92.7	93.6
O=C(NCC1CCCCN1)c1cc(OCC(F)(F)F)ccc1OCC(F)(F)F (stereo not given) [flecainide]	> 10	> 10	> 10	> 10	> 10	0	0	0	0	0	90	99.6	90.1	93.8	99.1	108	100	97.5	101	101	94.1	89.9	94.5	86	104	98.8	97.2	103	100	97.6	96.5	103	93.3	94.9	106
Cc1ccc2c(Cl)cc(Cl)c(O)c2n1 [chlorquinaldol]	> 10	> 10	> 10	> 10	> 10	0	0	0	0	0	93.3	88.9	99.2	86.6	103	92.4	99.9	84.2	86.9	108	107	91.3	96.7	91.4	103	96.8	102	97.8	102	100	89.3	95.5	99.1	84.4	108
CO/N=C(\C(=O)N[C@@H]1C(=O)N2C(C(=O)O)=C(CSC(=O)c3ccco3)CS[C@H]12)c1csc(N)n1 [CEFTIOFUR HYDROCHLORIDE]	> 10	> 10	> 10	> 10	> 10	0	0	0	0	0	92.5	107	93.9	96.9	106	96.3	110	99.4	104	102	99.9	97	90.6	95.4	99.3	104	95.6	100	97.4	104	106	98.5	92.4	103	103
CCC[C@H](NC(=O)[C@@H]1[C@H]2CCC[C@H]2CN1C(=O)[C@@H](NC(=O)[C@@H](NC(=O)c1cnccn1)C1CCCCC1)C(C)(C)C)C(=O)C(=O)NC1CC1 [telaprevir]	> 10	> 10	> 10	> 10	> 10	0	0	0	0	0	100	103	98.9	105	99	106	88.1	101	93.6	97.6	101	93.1	95.6	102	91.5	99.2	97.9	102	98.8	93.9	115	108	98.8	107	87
Cc1c(C(N)=O)cc([N+](=O)[O-])cc1[N+](=O)[O-] [dinitolmide]	> 10	> 10	> 10	> 10	> 10	0	0	0	0	0	102	101	98.8	98.3	97.4	99.4	105	101	100	103	101	97.6	102	95.1	105	111	105	105	93.5	92.3	104	104	106	99.7	102
Cc1c(F)cccc1NC(=O)Nc1ccc(Cl)c(S(=O)(=O)[C@H]2CCCNC2)c1O [danirixin]	> 10	> 10	> 10	> 10	> 10	0	0	0	0	0	106	106	106	98.2	100	84.6	88.3	91.8	93.1	95.6	99.3	104	93.4	99.4	95.9	99	104	95.4	98.8	98.8	94.8	93.1	103	94.7	106
CCOC(=O)C(=O)Nc1cccc(OC)c1C(N)=O	> 10	> 10	> 10	> 10	> 10	0	0	0	0	0	103	94.9	108	105	106	83.7	95.3	91.2	97.5	88.8	83.3	96.6	103	104	102	98.9	98.9	96	101	97.6	102	96.7	93.2	102	104
